From PMC9395446, “First-in-human phase 1/1b study to evaluate sitravatinib in patients with advanced solid tumors” (Investigational New Drugs, 2022)
pIC50: −log10 of the molar value. Converted amounts (≈) assume the structure as drawn.

Columns and labels:
[1] = system: target RTKs, including AXL, MERTK, VEGF-R, KIT and MET; conditions: read-out: Biochemical half-maximal inhibitory concentration, range; against target RTKs; cited from earlier work
VEGF-R2 = test: Pharmacodynamic plasma markers VEGF-A and s-VEGF-R2, exposure-response analysis; format: in vivo, human
Description: PK samples were collected after a single dose during the PK lead-in period and following multiple oral doses during the study. Plasma PK samples were assayed for quantification of sitravatinib. The lower limit of quantification was 0.05 ng/mL. PK parameters were determined using a noncompartmental analysis approach including maximum (peak) concentration (Cmax), time to reach Cmax following drug administration (tmax), area under the plasma concentration–time curves (AUCs), apparent total clearance of the drug from plasma after oral administration, apparent volume of distribution during the terminal phase after administration and terminal elimination half-life (t1/2). PD effects were examined by analyzing VEGF-A ligand and soluble (s)-VEGF-R2 levels in patients’ plasma samples collected before and after sitravatinib administration.

In the case of `COCCNCc1ccc(-c2cc3nccc(Oc4ccc(NC(=O)C5(C(=O)Nc6ccc(F)cc6)CC5)cc4F)c3s2)nc1` [sitravatinib, Sitravatinib], the pIC50 [1] is listed as 7.70 to 8.82, the EC50 (VEGF-R2; Homo sapiens, plasma PD markers, drug target VEGF-R2, read-out: EC50 from exposure-response analysis) is listed as 0.0309 µg/mL (≈ 0.0491 µM) and the “VEGF-A percent change from baseline (increase)” value (VEGF-R2; plasma, after sitravatinib administration) is listed as 200%.
